Results as given in publication PMC4980431, “Ctf4 Is a Hub in the Eukaryotic Replisome that Links Multiple CIP-Box Proteins to the CMG Helicase” (Molecular Cell, 2016).

Legend:
Ctf4 471-927 (Ctf4CTD) [1] = target: T1, Ctf4 471-927 (Ctf4CTD) (Saccharomyces cerevisiae, UniProt Q01454); details: isolated CIP-boxes; quoted in Discussion; ref Simon et al., 2014; read-out: affinity constant Kd; cited from earlier work
T1 sequence (Q01454 471-927): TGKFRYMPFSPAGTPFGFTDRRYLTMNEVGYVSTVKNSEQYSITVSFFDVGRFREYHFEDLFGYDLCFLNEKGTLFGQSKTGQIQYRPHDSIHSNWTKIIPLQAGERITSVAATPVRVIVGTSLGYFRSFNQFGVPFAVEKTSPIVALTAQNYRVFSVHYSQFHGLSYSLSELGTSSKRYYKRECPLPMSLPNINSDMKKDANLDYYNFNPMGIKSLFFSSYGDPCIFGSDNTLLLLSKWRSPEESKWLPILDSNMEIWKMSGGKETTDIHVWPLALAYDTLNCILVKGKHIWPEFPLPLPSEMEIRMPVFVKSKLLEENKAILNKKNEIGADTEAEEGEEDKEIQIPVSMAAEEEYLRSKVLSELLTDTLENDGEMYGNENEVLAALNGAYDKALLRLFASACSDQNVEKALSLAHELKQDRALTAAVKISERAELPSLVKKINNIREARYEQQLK
Description: The way that CIP-box proteins compete with each other for binding to Ctf4 remains an interesting issue for future investigation.

Ctf4 471-927 (Ctf4CTD) [2] = target: T1, Ctf4 471-927 (Ctf4CTD); assay: Fluorescence anisotropy, peptide binding to Ctf4 471-927; set-up: species or system budding yeast; details: 40 nM fluorescein-labeled Tof2 peptide, pH 7.2, 25°C, single measurement
Protocol: The lowest concentration of peptide at which the binding studies could be performed was determined via peptide calibration curves. Fluorescence anisotropy measurements were recorded in a PHERAstar Plus multi-detection plate reader (BMG Labtech) equipped with fluorescence polarization optic module (λex = 485 nm; λem = 520 nm) at 25°C. Each data point is the mean of 200 flashes/well. The voltage gain was set by adjusting the target mP values of fluorescein-labeled peptides relative to that of fluorescein (35 mP). Serial dilutions of Ctf4CTD were made in 20 mM HEPES (pH 7.2), 140 mM KCl, and 5% (w/v) glycerol in the presence of 40 nM (Sld5 and Tof2) or 50 nM (Dna2) fluorescein-labeled peptide. For Dna2 peptide, each data point is the mean of three independent experiments and curve fitting to the experimental data was performed in pro Fit 6.2 (QuantumSoft) using a Levenberg-Marquardt fitting algorithm in combination with a Gaussian error distribution analysis.

Ctf4 471–927 = assay: Native mass spectrometry; type: binding, budding yeast; details: for direct binding to Ctf4 (in words): 500 mM ammonium acetate, 5-fold or 10-fold molar excess of peptide, 100 μM protein, minimum 30 min
Protocol: In preparation for non-denaturing nano-electrospray ionization mass spectrometry (native mass spectrometry), Ctf4 471–927 was subjected to two successive rounds of buffer exchange into 500 mM ammonium acetate using illustra NAP-5 columns (GE Healthcare). Following buffer exchange, a 5-fold or 10-fold molar excess of Dna2 peptide 207- […] -223 or Tof2 peptide 497- […] -517 solubilized in 500 mM ammonium acetate was mixed with Ctf4CTD at a final protein concentration of 100 μM and incubated for a minimum of 30 min. Native mass spectra were recorded on a Synapt HDMS instrument (Waters) and calibrated using caesium iodide (100 mg ml^−1) as described previously ([Hernández and Robinson, 2007], [Simon et al., 2014]).

Ctf4 471–927 (Ctf4CTD) = assay: GST pull-down; type: binding, budding yeast; details: GST fusion on Glutathione Sepharose; Ctf4CTD 2 mg/ml, 1 hr 4°C; SDS-PAGE
Protocol: For each Dna2 construct to be tested for interaction with Ctf4CTD, a 25-ml E. coli Rosetta2 (DE3) culture overexpressing the GST-fusion construct was pelleted, resuspended in buffer (50 mM Tris [pH 7.0], 500 mM NaCl, 10% [w/v] glycerol, 1 mM DTT, and protease inhibitors) (Sigma), and lysed by sonication. Following centrifugation, the soluble extract was mixed with 50 μl of Glutathione Sepharose beads (GE Healthcare) pre-equilibrated in the same buffer, and incubated under rotation at 4°C for 1 hr. Unbound protein was removed by three consecutive washes with 1 ml of buffer, followed by three 1-ml washes with pull-down buffer (20 mM HEPES [pH 7.2], 150 mM NaCl, 5% [w/v] glycerol, 0.1% Igepal CA-630, 1 mM TCEP, and 1% BSA). Subsequently, 500 μl of purified Ctf4CTD protein at a concentration of 2 mg/ml was added to the Sepharose beads and binding was allowed to take place for an additional 1 hr at 4°C. The binding reaction was stopped by two consecutive washes with 1 ml of pull-down buffer and a final 1 ml wash with pull-down buffer without BSA. The Sepharose beads were mixed with SDS loading dye and Ctf4CTD interactions with the respective bait proteins were detected via SDS-PAGE.

Substance | Kd (Ctf4 471-927 (Ctf4CTD) [1]) [µM] | Kd (result in words) (Ctf4 471-927 (Ctf4CTD) [2]) | Kd (result in words) (Ctf4 471-927 (Ctf4CTD) [2]; listed as Tof2) | direct binding to Ctf4 (in words) (Ctf4 471–927; listed as Tof2 CIP) | direct binding to Ctf4 (in words) (Ctf4 471–927; listed as peptide containing the Tof2 CIP-box) | hierarchy of affinities / occupancy of binding sites by CIP-box peptides (Ctf4 471–927; hierarchy of affinities said to be reflected in native MS occupancy, Figures S3B and S4A, Simon et al., 2014) | pull-down of Ctf4 (in words) (Ctf4 471–927 (Ctf4CTD))
CIP-box of Sld5: isolated CIP-box of Sld5, affinity quoted from Simon et al., 2014 (MDINIDDILAELDKETTAVD; fluorescein label (N-terminal probable); the exact peptide limits are in Simon et al. 2014) | 5 | – | – | – | – | – | –
SHAKDVKIQETIRKLNRFKPT [Tof2 peptide] | – | too weak to be quantified reliably | not determinable | binds directly to Ctf4 | could indeed bind directly to Ctf4 in vitro | Sld5 > Pol1 > Dna2 > Tof2 | could indeed bind directly to Ctf4 in vitro
